The values that follow come from patent EP4610269A1, “UROKINASE PLASMINOGEN ACTIVATOR SURFACE RECEPTOR (UPAR) LIGANDS FOR DIAGNOSTIC OR THERAPEUTIC USE” (3B Pharmaceuticals GmbH, priority 2024, dated 2025).

One experiment addresses T1, human uPAR (uPAR-Fc) (Homo sapiens, UniProt Q03405).
T1 construct: comprising amino acids Leu23-Arg303 according to UniProt entry Q03405.1; purchased R&D Systems 10378-UK-100
As to the kind of experiment: Surface plasmon resonance (SPR) assay, single cycle kinetics. To be noted: pKD category for uPAR SPR activity assay; uPAR-Fc on Protein A-Chip, 25°C; read-out: pKD CAT (converted). The format is binding. Here is the method:
Surface plasmon resonance (SPR) is an optical technique used to measure molecular interactions in real time. SPR occur when plane-polarized light hits a metal film under total internal reflection conditions. SPR signal is directly dependent on the refractive index of the medium on the sensor chip. In an SPR experiment, one molecule (i.e. uPAR) is immobilized on a sensor chip and binding to a second molecule (i.e. test compounds) is measured under flow. The binding of the compound on the surface changes the refractive index. In responses the reflection angle changes as compounds bind and dissociate on the immobilized protein on the surface. This response is measured in resonance units (RU). The RUs are proportional to the number of molecules bound to the surface. […] Kinetic binding constants and equilibrium binding constants can be derived from the sensorgrams.
Surface plasmon resonance (SPR) studies were performed using a Biacore™ T200 or S200 SPR system (Cytiva, formerly GE Life Sciences) to assess binding of compounds to recombinant uPAR protein.
In this example recombinant protein comprising the extracellular domains of human uPAR (uPAR-Fc, R&D Systems, CAT 10378-UK-100, comprising amino acids Leu23-Arg303 according to UniProt entry Q03405.1 and Fc region of human IgG1 at the C-terminus) was immobilized on a Protein A-Chip (Cytiva, CAT 29127555) according to the supplier's instructions. uPAR-Fc was diluted in Running Buffer (10 mM HEPES, 150 mM NaCl, 50 µM EDTA, 0.1% DMSO, 0.05% Tween-20, pH 7.4) to a final concentration of 100 nM and then flushed over the Protein A-Chip to immobilized ~2000 RUs.
Stock solutions of test compounds were prepared by dissolving each compound in DMSO. DMSO stock solution were diluted 1: 1000 in Running Buffer without DMSO. Further sequential dilutions were made with Running Buffer containing 0.1% DMSO. SPR binding analyses were performed in Single Cycle Kinetic (SCK) mode at 25°C. Flow cell without immobilized uPAR-Fc served as reference flow cell. The chip was regenerated with 10 mM Glycine, pH 1,5 to remove the uPAR-Fc from the chip surface after each SCK run. After every three SCK measurements, a blank run with Running Buffer instead of test compound was included to correct for baseline drifts (double reference substraction method). Table 11: SPR protocol steps for SCK with uPAR-Fc immobilized on a Protein A-Chip.
For each test compound, SPR raw data sensorgrams were recorded using the Biacore™ T200 or S200 control software. Sensorgrams were processed and analyzed with the Biacore™ Insight Evaluation software. […] The reference subtracted sensorgram for each test compound was further corrected for baseline drift by subtracting the sensorgram of a reference subtracted blank run (Running Buffer only). The dissociation constant (KD) was calculated from the double reference subtracted sensorgrams using the 1:1 Langmuir binding model. The pKD value (negative decadic logarithm of dissociation constant) was calculated using Microsoft Excel.
For orientation: In SPR one partner is held on a chip, and binding of the other changes the refractive index at the surface.

In experiment [1] the target is T2, uPAR-expressing HEC-265 human endometrial adenocarcinoma cells (Homo sapiens, UniProt Q03405).
T2 construct: Cell surface uPAR-expressing HEC-265 human endometrial adenocarcinoma cells; host or cells: HEC-265
The experiment can be described thus: Competitive FACS binding assay. The settings on record: pIC50 category of FACS binding. Here is the method: In order to determine binding of compounds according to the present invention to uPAR-expressing cells, a competitive FACS binding assay was established.
Cell surface uPAR-expressing HEC-265 human endometrial adenocarcinoma cells (Japanese Collection of Research Bioresources, #JCRB1142) were cultured in MEM Eagle with stable glutamine (Pan Biotech, #P04-09500) including 15% fetal bovine serum (Pan Biotech, #P30-3306) and 100 U/ml penicillin and 100 µg/mL streptomycin (Pan Biotech, #P06-07100). Cells were detached with Cell Dissociation Buffer (Thermo Scientific, #13151014) and washed in FACS buffer (PBS (Pan Biotech, #P04-36500) including 1% BSA (SeraCare, #AP-4510-80). Cells were diluted in FACS buffer to a final concentration of 500.000 cells per ml and 200 µl of the cell suspension are transferred to a u-shaped non-binding 96-well plate (Greiner Bio-One, #650901).
For IC50 determination, cells were incubated with 10 nM Bio--Ttds--Ttds--Ttds--Ttds-D-Cha-FsrYLWS-NH2) in the presence of increasing concentrations of non-labeled test compounds at 4°C for 1 hour. Cells were washed twice in FACS buffer. An additional incubation step with 1 µg/mL APC-Streptavidin (Miltenyi; #130-106-791) in 50 µL FACS buffer for 30 minutes on ice was performed followed by two washes with FACS buffer. Cells were resuspended in 200 µl FACS buffer and analyzed in an Attune NxT flow cytometer. Median fluorescence intensities (APC channel) were calculated by Attune NxT software and plotted against peptide concentrations. Four parameter logistic (4PL) curve fitting and pIC50 calculations were performed using ActivityBase software.
(In general: Flow cytometry measures light scatter and fluorescence of single cells or particles in a stream.)

Where a SMILES comes first, the peptide text is derived from it. Bridges are numbered along the chain shown (N, C = ends). [ ]: non-standard residue; d: D form. The star is where a group is joined. DOTA = O=C(O)CN1CCN(CC(=O)O)CCN(CC(=O)*)CCN(CC(=O)O)CC1; Pro(cis-4-F) = O=C(O)[C@@H]1C[C@H](F)CN1; Hyp = O=C(O)[C@@H]1C[C@@H](O)CN1; Pentanoyl(4-Me) = CC(C)CCC(=O)*; 2Thi = N[C@@H](Cc1cccs1)C(=O)O; Cit = NC(=O)NCCC[C@H](N)C(=O)O; Butoxycarbonyl = CCCCOC(=O)*; NMeC = CN[C@@H](CS)C(=O)O; Nle = CCCC[C@H](N)C(=O)O; Nva = CCC[C@H](N)C(=O)O; Hexanoyl = CCCCCC(=O)*; Pentanoyl = CCCCC(=O)*; Butyryl = CCCC(=O)* Some results are limits rather than exact numbers.

T1 sequence (Q03405 23-303): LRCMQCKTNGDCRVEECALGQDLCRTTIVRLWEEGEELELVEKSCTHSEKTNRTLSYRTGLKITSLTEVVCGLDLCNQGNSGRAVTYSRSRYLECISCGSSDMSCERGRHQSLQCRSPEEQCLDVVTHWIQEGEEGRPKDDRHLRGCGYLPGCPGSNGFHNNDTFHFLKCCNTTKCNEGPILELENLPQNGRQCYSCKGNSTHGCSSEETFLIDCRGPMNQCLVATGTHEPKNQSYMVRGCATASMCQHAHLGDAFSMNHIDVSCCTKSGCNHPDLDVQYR
T2 sequence (Q03405 23-335): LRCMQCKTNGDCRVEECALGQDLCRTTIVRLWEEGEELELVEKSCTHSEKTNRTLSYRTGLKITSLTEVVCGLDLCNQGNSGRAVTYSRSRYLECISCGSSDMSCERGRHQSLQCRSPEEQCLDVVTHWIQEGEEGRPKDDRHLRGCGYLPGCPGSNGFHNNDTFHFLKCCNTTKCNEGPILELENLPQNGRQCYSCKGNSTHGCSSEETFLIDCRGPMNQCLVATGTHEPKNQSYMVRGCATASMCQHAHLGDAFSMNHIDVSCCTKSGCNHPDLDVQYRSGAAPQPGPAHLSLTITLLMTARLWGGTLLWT

For orientation: IC50 means the concentration at which inhibition is half-maximal. For the molecule `CCCC[C@@H]1NC(=O)[C@H](CCCNC(=N)N)NC(=O)[C@@H](NC(=O)[C@H](CC(C)C)NC(=O)[C@@H](CC(=O)O)NC(C)=O)CSSC[C@@H](C(N)=O)NC(=O)[C@H](CC(C)C)NC(=O)[C@H]([C@@H](C)CC)NC(=O)[C@H](C)NC(=O)[C@@H]2CCCN2C(=O)[C@H](Cc2ccccc2)NC(=O)[C@H](Cc2ccc(O)cc2)NC1=O` [UPAR-133, Ac-asp-Leu-[Cys-Arg-Nle-Tyr-Phe-Pro-Ala-Ile-Leu-Cys]-NH2] (Ac-[dD]LCR[Nle]YFPAILC-NH2; disulfide 3-12), the Kd at human uPAR (uPAR-Fc) was under 1.58 nM. In experiment [1], this molecule had an IC50 of at most 10 nM.
In the same order, the values of `CCCCOC(=O)N[C@H]1CSSC[C@@H](C(N)=O)NC(=O)[C@H](CCC)NC(=O)[C@H]([C@@H](C)CC)NC(=O)[C@@H]2C[C@@H](O)CN2C(=O)[C@@H]2CCCN2C(=O)[C@H](Cc2cccs2)NC(=O)[C@H](Cc2ccc(O)cc2)NC(=O)[C@H](CCCCNC(=O)CN2CCN(CC(=O)O)CCN(CC(=O)O)CCN(CC(=O)O)CC2)NC(=O)[C@H]([C@@H](C)O)NC1=O` [UPAR-134, Butoc-[Cys-Thr-Lys(DOTA)-Tyr-Thi-Pro-Hyp-Ile-Nva-Cys]-NH2] (Butoxycarbonyl-CTK(DOTA)Y[2Thi]P[Hyp]I[Nva]C-NH2; disulfide 1-10) are under 1.58 nM and at most 10 nM.
Turning to `CCCCC(=O)N[C@H]1CSSC[C@@H](C(N)=O)NC(=O)[C@H](CCC)NC(=O)[C@H]([C@@H](C)CC)NC(=O)[C@@H]2C[C@@H](O)CN2C(=O)[C@@H]2C[C@@H](O)CN2C(=O)[C@H](Cc2ccccc2)NC(=O)[C@H](Cc2ccc(O)cc2)NC(=O)[C@H](CCCCNC(=O)CN2CCN(CC(=O)O)CCN(CC(=O)O)CCN(CC(=O)O)CC2)NC(=O)[C@H]([C@@H](C)O)NC1=O` [UPAR-135, Pent-[Cys-Thr-Lys(DOTA)-Tyr-Phe-Hyp-Hyp-Ile-Nva-Cys]-NH2] (Pentanoyl-CTK(DOTA)YF[Hyp][Hyp]I[Nva]C-NH2; disulfide 1-10), the Kd on human uPAR (uPAR-Fc) is under 1.58 nM. The molecule also gave an IC50 in experiment [1] of at most 10 nM.
Regarding `CCC[C@@H]1NC(=O)[C@@H](C)NC(=O)[C@@H]2CCCN2C(=O)[C@H](Cc2ccccc2)NC(=O)[C@H](Cc2ccc(O)cc2)NC(=O)[C@H](CCC(N)=O)NC(=O)[C@H](CCCNC(N)=O)NC(=O)[C@@H](NC(=O)CCC(C)C)CSSC[C@@H](C(N)=O)NC(=O)[C@H](CC(C)C)NC1=O` [UPAR-136, iHex-[Cys-Cit-Gln-Tyr-Phe-Pro-ala-Nva-Leu-Cys]-NH2] ({Pentanoyl(4-Me)}-C[Cit]QYFP[dA][Nva]LC-NH2; disulfide 1-10), the Kd at human uPAR (uPAR-Fc) is 1.58 to 10 nM. In addition, the IC50 in experiment [1] was at most 10 nM.
`CCCC[C@@H]1NC(=O)[C@H](CCCNC(=N)N)NC(=O)[C@@H](NC(=O)[C@H](CC(C)C)NC(=O)[C@H](CC(=O)O)NC(C)=O)CSSC[C@@H](C(N)=O)NC(=O)[C@@H](CC(C)C)NC(=O)[C@H]([C@@H](C)CC)NC(=O)[C@H](C)NC(=O)[C@@H]2CCCN2C(=O)[C@H](Cc2ccccc2)NC(=O)[C@H](Cc2ccc(O)cc2)NC1=O` [UPAR-137, Ac-Asp-Leu-[Cys-Arg-Nle-Tyr-Phe-Pro-Ala-Ile-leu-Cys]-NH2] (Ac-DLCR[Nle]YFPAI[dL]C-NH2; disulfide 3-12): the Kd at human uPAR (uPAR-Fc) was 1.58 to 10 nM. In experiment [1], this molecule showed an IC50 of 12.6 to 31.6 nM.
With `CCCC(=O)N[C@H]1CSSC[C@@H](C(N)=O)NC(=O)[C@H](CC(C)C)NC(=O)[C@H]([C@@H](C)CC)NC(=O)[C@@H](C)NC(=O)[C@@H]2CCCN2C(=O)[C@H](Cc2ccccc2)NC(=O)[C@H](Cc2ccc(O)cc2)NC(=O)[C@H](CCC(N)=O)NC(=O)[C@H](CCCNC(N)=O)NC1=O` [UPAR-139, But-[Cys-Cit-Gln-Tyr-Phe-Pro-ala-Ile-Leu-Cys]-NH2] (Butyryl-C[Cit]QYFP[dA]ILC-NH2; disulfide 1-10), the Kd on human uPAR (uPAR-Fc) is 1.58 to 10 nM. The same molecule gave an IC50 in experiment [1] of 12.6 to 31.6 nM.
With `CCCCCC(=O)N[C@@H](CCCCNC(=O)CN1CCN(CC(=O)O)CCN(CC(=O)O)CCN(CC(=O)O)CC1)C(=O)N[C@@H](CC(C)C)C(=O)N[C@H]1CSSC[C@@H](C(N)=O)NC(=O)[C@H](CC(C)C)NC(=O)[C@H]([C@@H](C)CC)NC(=O)[C@H](C)NC(=O)[C@@H]2CCCN2C(=O)[C@H](Cc2ccccc2)NC(=O)[C@H](Cc2ccc(O)cc2)NC(=O)[C@H](CCSC)NC(=O)[C@H](CCCNC(=N)N)NC1=O` [UPAR-140, Hex-Lys(DOTA)-Leu-[Cys-Arg-Met-Tyr-Phe-Pro-Ala-Ile-Leu-Cys]-NH2] (Hexanoyl-K(DOTA)LCRMYFPAILC-NH2; disulfide 3-12), the Kd on human uPAR (uPAR-Fc) is under 1.58 nM. Further, the IC50 in experiment [1] was at most 10 nM.
In the case of `CCCCOC(=O)N[C@H]1CSSC[C@@H](C(=O)N[C@@H](CC(=O)O)C(N)=O)NC(=O)[C@H](CCC)NC(=O)[C@H]([C@@H](C)CC)NC(=O)[C@@H]2C[C@@H](O)CN2C(=O)[C@@H]2C[C@H](F)CN2C(=O)[C@H](Cc2ccccc2)NC(=O)[C@H](Cc2ccc(O)cc2)NC(=O)[C@H](CCCCNC(=O)CN2CCN(CC(=O)O)CCN(CC(=O)O)CCN(CC(=O)O)CC2)NC(=O)[C@H]([C@@H](C)O)NC1=O` [UPAR-141, Butoc-[Cys-Thr-Lys(DOTA)-Tyr-Phe-4Cfp-Hyp-Ile-Nva-Cys]-Asp-NH2] (Butoxycarbonyl-CTK(DOTA)YF[Pro(cis-4-F)][Hyp]I[Nva]CD-NH2; disulfide 1-10), at human uPAR (uPAR-Fc), the Kd is 10 to 100 nM. Further, the IC50 in experiment [1] was 39.8 to 100 nM.
As for `CCC[C@@H]1NC(=O)[C@H]([C@@H](C)CC)NC(=O)[C@@H]2C[C@@H](O)CN2C(=O)[C@@H]2CCCN2C(=O)[C@H](Cc2ccccc2)NC(=O)[C@H](Cc2ccc(O)cc2)NC(=O)[C@H](CCC(N)=O)NC(=O)[C@H](CCCNC(N)=O)NC(=O)[C@@H](N(C)C(=O)[C@H](CC(C)C)NC(=O)CN2CCN(CC(=O)O)CCN(CC(=O)O)CCN(CC(=O)O)CC2)CSSC[C@@H](C(N)=O)NC1=O` [UPAR-142, DOTA-Leu-[Nmc-Cit-Gln-Tyr-Phe-Pro-Hyp-Ile-Nva-Cys]-NH2] ({DOTA}-L[NMeC][Cit]QYFP[Hyp]I[Nva]C-NH2; disulfide 2-11), the Kd on human uPAR (uPAR-Fc) was 10 to 100 nM. In experiment [1], this molecule had an IC50 of at least 126 nM.
`CCCCCC(=O)N[C@H](C(=O)N[C@@H](CC(C)C)C(=O)N[C@H]1CSSC[C@@H](C(N)=O)NC(=O)[C@H](CC(C)C)NC(=O)[C@H]([C@@H](C)CC)NC(=O)[C@H](C)NC(=O)[C@@H]2CCCN2C(=O)[C@H](Cc2ccccc2)NC(=O)[C@H](Cc2ccc(O)cc2)NC(=O)[C@H](Cc2ccc(O)cc2)NC(=O)[C@H](CCC(=O)O)NC1=O)[C@@H](C)O` [UPAR-143, Hex-Thr-Leu-[Cys-Glu-Tyr-Tyr-Phe-Pro-Ala-Ile-Leu-Cys]-NH2] (Hexanoyl-TLCEYYFPAILC-NH2; disulfide 3-12): at human uPAR (uPAR-Fc), the Kd is under 1.58 nM. The IC50 in experiment [1] was at most 10 nM.
